Key:
[1] = target: T1, Alpha-2C adrenergic receptor (Homo sapiens, UniProt P18825); assay: DRUGMATRIX: Adrenergic Alpha-2C radioligand binding (ligand: [3H] MK-912); type: cell membranes, Sf9, Membrane; details: sf9
T1 sequence (P18825 whole entry): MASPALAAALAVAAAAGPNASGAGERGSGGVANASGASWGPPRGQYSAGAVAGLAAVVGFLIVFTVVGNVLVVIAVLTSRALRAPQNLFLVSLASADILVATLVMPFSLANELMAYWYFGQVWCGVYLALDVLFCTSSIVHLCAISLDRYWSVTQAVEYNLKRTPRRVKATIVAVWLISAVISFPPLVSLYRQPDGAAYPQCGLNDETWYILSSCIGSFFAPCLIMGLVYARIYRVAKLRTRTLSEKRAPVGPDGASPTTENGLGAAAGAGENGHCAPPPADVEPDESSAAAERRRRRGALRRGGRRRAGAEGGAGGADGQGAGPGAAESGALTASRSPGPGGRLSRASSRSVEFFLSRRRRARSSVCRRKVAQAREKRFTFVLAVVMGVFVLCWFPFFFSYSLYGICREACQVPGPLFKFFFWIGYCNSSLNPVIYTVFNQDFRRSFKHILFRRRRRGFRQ

[2] = target: Beta-3 adrenergic receptor (Homo sapiens, UniProt P13945); assay: DRUGMATRIX: Adrenergic beta3 radioligand binding (ligand: [125I] Cyanopindolol); type: cell membranes, HEK293, Membrane; details: hek293; Not Active = under 50% inhibition at 10 µM
[3] = DRUGMATRIX: Serotonin (5-Hydroxytryptamine) 5-HT3 radioligand binding (ligand: [3H] GR-65630); type: cell membranes, Membrane; details: hek293; Not Active = under 50% inhibition at 10 µM
Substance-P receptor = Substance-P receptor (Homo sapiens, UniProt P25103); type: cell membranes, CHO, Membrane; details: cho; note: in other assays of this panel Not Active means under 50% inhibition at 10 µM
[4] = target: Prostaglandin G/H synthase 1 (Homo sapiens, UniProt P23219); assay: biochemical; type: tissue-based, Platelet; details: platelet;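 note: inhibition of COX-1 enzyme activity, with arachidonic acid supplied as substrate; in other assays of this panel Not Active means under 50% inhibition at 10 µM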
Endothelin-1 receptor = target: T2, Endothelin-1 receptor (Homo sapiens, UniProt P25101); type: cell membranes, Membrane; details: cho-k1; note: in other assays of this panel Not Active means under 50% inhibition at 10 µM
T2 sequence (P25101 whole entry): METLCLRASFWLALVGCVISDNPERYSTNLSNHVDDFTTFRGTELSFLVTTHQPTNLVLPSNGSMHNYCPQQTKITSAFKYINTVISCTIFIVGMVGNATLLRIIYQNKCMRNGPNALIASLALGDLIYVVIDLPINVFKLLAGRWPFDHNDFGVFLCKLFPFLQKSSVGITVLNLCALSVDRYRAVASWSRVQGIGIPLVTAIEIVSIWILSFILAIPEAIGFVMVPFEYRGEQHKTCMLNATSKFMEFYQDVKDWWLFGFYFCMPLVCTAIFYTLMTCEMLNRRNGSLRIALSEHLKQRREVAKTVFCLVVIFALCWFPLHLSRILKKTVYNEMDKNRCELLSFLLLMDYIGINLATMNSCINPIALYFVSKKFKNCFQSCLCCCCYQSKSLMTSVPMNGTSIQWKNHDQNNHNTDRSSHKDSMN

[5] = DRUGMATRIX: Glutamate, Kainate radioligand binding (ligand: [3H] Kainic acid); type: cell membranes, Rattus norvegicus, Wistar, Brain, Membrane; details: Not Active = under 50% inhibition at 10 µM
Mu-type opioid receptor = Mu-type opioid receptor (Homo sapiens, UniProt P35372); assay: DRUGMATRIX: Opiate mu (OP3, MOP) radioligand binding (ligand: [3H] Diprenorphine); type: cell membranes, CHO-K1, Membrane; details: cho-k1; Not Active = under 50% inhibition at 10 µM
[6] = target: T3, Angiotensin-converting enzyme (Oryctolagus cuniculus, UniProt P12822); assay: biochemical; type: tissue-based, Lung;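 note: enzymatic inhibition of angiotensin-converting enzyme measured with FAPGG as the substrate; in other assays of this panel Not Active means under 50% inhibition at 10 µM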
T3 sequence (P12822 whole entry): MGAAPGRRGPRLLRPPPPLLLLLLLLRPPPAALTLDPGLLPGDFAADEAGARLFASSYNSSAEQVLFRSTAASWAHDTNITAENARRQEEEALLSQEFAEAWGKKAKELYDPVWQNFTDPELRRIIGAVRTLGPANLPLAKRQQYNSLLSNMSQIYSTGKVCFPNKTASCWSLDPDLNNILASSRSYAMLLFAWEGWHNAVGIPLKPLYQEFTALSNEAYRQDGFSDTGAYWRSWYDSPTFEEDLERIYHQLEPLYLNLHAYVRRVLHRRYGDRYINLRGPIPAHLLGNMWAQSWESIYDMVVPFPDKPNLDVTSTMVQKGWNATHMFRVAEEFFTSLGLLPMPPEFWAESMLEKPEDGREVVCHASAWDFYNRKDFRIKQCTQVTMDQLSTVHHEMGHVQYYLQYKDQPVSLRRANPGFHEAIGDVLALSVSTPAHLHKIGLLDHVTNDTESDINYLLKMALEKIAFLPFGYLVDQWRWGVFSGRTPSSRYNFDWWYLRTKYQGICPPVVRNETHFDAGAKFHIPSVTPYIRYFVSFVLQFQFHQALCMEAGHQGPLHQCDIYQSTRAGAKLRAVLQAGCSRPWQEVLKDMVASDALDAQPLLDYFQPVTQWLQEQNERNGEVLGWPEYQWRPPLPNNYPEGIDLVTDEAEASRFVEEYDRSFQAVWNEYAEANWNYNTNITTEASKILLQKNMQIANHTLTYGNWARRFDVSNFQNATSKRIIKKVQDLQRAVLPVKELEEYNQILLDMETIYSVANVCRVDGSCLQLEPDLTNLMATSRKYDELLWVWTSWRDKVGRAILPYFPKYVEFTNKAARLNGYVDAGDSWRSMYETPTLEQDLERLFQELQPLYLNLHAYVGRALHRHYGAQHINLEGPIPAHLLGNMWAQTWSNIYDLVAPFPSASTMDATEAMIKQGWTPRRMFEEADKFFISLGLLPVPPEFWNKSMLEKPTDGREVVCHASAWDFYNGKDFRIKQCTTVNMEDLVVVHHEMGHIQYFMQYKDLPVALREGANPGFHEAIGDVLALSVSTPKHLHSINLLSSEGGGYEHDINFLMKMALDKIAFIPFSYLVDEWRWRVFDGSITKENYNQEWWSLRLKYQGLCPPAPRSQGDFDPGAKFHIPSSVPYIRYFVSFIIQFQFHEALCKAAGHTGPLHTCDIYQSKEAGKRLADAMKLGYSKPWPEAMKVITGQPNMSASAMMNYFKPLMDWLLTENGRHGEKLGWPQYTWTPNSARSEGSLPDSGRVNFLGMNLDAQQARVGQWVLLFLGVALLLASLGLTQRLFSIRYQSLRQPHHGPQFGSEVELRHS

Cytochrome P450 2C19 = Cytochrome P450 2C19 (Homo sapiens, UniProt P33261); details: bti-tn-5b1-4; note: in other assays of this panel Not Active means under 50% inhibition at 10 µM
[7] = DRUGMATRIX: Potassium Channel [KATP] radioligand binding (ligand: [3H] Glyburide); type: cell membranes, Membrane; details: hit-t15; Not Active = under 50% inhibition at 10 µM
[8] = target: Voltage-gated inwardly rectifying potassium channel KCNH2 (Homo sapiens, UniProt Q12809); details: hek293; note: in other assays of this panel Not Active means under 50% inhibition at 10 µM
Voltage-gated inwardly rectifying potassium channel KCNH2, sequence (Q12809 whole entry): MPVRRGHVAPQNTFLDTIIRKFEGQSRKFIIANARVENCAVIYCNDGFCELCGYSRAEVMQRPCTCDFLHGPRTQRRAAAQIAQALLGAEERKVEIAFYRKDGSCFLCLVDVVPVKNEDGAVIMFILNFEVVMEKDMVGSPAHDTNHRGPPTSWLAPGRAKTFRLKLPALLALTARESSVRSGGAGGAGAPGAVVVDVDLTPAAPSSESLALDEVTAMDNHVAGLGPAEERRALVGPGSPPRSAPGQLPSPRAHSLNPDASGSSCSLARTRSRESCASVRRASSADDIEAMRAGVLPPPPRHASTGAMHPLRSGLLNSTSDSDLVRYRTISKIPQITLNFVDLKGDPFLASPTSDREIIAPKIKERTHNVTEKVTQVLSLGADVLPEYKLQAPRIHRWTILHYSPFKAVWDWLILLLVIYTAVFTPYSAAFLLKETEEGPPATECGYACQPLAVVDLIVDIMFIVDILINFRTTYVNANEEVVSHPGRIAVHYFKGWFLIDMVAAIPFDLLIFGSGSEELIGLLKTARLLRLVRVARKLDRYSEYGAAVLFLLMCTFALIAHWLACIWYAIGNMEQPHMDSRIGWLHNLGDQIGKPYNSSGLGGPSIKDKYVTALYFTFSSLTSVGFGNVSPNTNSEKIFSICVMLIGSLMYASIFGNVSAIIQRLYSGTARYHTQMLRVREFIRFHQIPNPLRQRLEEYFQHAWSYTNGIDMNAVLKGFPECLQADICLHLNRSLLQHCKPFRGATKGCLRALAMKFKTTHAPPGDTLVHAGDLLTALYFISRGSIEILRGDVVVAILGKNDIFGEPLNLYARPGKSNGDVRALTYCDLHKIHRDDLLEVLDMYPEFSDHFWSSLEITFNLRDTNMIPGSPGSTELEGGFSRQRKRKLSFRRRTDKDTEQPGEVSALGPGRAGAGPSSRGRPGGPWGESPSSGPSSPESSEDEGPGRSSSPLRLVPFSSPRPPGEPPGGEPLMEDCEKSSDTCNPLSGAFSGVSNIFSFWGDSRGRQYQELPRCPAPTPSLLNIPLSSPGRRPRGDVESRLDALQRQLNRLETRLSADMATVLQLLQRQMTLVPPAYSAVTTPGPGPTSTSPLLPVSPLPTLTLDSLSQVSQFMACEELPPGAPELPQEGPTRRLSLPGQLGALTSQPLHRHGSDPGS

Mu-type opioid receptor, sequence (P35372 whole entry): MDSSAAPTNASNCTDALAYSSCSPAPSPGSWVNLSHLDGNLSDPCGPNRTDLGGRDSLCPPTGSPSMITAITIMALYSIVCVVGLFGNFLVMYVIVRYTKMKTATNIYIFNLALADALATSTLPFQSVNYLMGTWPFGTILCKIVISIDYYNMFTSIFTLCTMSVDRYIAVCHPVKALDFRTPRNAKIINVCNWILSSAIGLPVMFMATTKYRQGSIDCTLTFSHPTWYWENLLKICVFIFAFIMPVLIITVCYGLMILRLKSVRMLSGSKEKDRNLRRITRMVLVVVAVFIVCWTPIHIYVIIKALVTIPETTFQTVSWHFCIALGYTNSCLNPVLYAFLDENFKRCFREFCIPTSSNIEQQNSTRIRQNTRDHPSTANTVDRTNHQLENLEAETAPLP
Prostaglandin G/H synthase 1, sequence (P23219 whole entry): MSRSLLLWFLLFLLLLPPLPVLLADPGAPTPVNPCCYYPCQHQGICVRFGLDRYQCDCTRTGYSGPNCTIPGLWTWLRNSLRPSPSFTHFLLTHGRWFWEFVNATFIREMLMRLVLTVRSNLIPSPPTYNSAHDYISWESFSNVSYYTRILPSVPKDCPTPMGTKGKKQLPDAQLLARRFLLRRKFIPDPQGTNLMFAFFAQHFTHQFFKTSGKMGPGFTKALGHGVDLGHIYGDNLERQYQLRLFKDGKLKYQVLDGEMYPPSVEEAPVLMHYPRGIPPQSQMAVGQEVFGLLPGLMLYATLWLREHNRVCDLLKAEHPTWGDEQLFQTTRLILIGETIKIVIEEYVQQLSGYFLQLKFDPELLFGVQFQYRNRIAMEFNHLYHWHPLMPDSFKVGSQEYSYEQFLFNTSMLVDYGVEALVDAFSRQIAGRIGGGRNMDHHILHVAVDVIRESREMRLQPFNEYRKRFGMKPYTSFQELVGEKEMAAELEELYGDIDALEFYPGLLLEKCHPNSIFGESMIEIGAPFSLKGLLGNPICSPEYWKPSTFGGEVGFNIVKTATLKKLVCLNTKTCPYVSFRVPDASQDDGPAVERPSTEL
Beta-3 adrenergic receptor, sequence (P13945 whole entry): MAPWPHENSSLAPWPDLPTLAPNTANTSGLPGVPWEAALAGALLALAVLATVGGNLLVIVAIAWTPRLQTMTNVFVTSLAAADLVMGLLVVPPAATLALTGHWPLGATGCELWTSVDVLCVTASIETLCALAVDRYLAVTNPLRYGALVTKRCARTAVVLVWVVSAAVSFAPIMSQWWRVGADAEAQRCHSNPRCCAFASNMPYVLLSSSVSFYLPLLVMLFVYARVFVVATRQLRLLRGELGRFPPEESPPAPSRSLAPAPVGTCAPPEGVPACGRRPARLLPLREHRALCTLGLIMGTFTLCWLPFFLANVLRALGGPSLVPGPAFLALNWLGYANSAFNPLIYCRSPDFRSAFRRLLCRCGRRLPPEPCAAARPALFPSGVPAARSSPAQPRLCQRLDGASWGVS
Substance-P receptor, sequence (P25103 whole entry): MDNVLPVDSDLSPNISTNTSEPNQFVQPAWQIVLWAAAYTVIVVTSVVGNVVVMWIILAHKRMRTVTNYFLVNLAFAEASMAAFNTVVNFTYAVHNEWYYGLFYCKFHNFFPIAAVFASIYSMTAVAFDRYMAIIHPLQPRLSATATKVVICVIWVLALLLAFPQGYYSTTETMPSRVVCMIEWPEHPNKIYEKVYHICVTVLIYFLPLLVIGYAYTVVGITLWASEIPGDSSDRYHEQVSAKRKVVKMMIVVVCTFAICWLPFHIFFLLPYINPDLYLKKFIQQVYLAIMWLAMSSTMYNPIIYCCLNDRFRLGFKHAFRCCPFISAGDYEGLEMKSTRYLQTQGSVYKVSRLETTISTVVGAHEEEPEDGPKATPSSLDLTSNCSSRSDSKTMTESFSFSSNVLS
Cytochrome P450 2C19, sequence (P33261 whole entry): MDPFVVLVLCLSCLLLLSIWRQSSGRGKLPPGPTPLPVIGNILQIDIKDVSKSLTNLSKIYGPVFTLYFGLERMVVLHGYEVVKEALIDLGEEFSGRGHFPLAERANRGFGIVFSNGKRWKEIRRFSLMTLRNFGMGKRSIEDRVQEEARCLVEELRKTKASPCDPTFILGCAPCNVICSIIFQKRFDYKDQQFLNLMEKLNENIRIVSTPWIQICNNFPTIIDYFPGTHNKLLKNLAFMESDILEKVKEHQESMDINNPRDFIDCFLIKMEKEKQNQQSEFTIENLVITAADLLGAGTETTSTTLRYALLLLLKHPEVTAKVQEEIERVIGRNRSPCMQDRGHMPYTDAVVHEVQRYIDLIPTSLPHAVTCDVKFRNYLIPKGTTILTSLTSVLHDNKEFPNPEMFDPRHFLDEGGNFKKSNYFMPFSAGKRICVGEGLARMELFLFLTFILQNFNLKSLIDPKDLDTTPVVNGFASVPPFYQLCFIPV

CC1(C)S[C@@H]2[C@H](NC(=O)[C@H](N)c3ccc(O)cc3)C(=O)N2[C@H]1C(=O)O [AMOXICILLIN]
Not Active: IC50 [1] | IC50 [2] | IC50 [3] | Ki [3] | IC50 (Substance-P receptor) | IC50 [4] | IC50 (Endothelin-1 receptor) | IC50 [5] | Ki [5] | IC50 (Mu-type opioid receptor) | IC50 [6] | IC50 (Cytochrome P450 2C19) | Ki (Cytochrome P450 2C19)

Cn1cnc([N+](=O)[O-])c1Sc1ncnc2nc[nH]c12 [AZATHIOPRINE]
Not Active: IC50 [1] | IC50 [2] | IC50 [3] | Ki [3] | IC50 (Substance-P receptor) | IC50 [4] | IC50 (Endothelin-1 receptor) | IC50 [5] | Ki [5] | IC50 (Mu-type opioid receptor) | IC50 [7] | Ki [7] | IC50 [6] | IC50 [8] | Ki [8]

CCCCOC(=O)c1ccc(N)cc1 [BUTAMBEN]
Not Active: IC50 [1] | IC50 [2] | IC50 [3] | Ki [3] | IC50 (Substance-P receptor) | IC50 [4] | IC50 (Endothelin-1 receptor) | IC50 [5] | Ki [5] | IC50 (Mu-type opioid receptor) | IC50 [7] | Ki [7] | IC50 [6] | IC50 [8] | Ki [8]

CC(=O)O[C@]1(C(C)=O)CC[C@H]2[C@@H]3C=C(Cl)C4=CC(=O)CC[C@]4(C)[C@H]3CC[C@@]21C [CHLORMADINONE ACETATE]
Not Active: IC50 [1] | IC50 [2] | IC50 [3] | Ki [3] | IC50 (Substance-P receptor) | IC50 [4] | IC50 (Endothelin-1 receptor) | IC50 [5] | Ki [5] | IC50 (Mu-type opioid receptor) | IC50 [7] | Ki [7] | IC50 [6] | IC50 [8] | Ki [8]

CN(C)CCCC1(c2ccc(F)cc2)OCc2cc(C#N)ccc21 (stereo not drawn) [CITALOPRAM]
Not Active: IC50 [1] | IC50 [2] | IC50 [3] | Ki [3] | IC50 (Substance-P receptor) | IC50 [4] | IC50 (Endothelin-1 receptor) | IC50 [5] | Ki [5] | IC50 (Mu-type opioid receptor) | IC50 [7] | Ki [7] | IC50 [6] | IC50 (Cytochrome P450 2C19) | Ki (Cytochrome P450 2C19)

COc1ccc([C@@H]2Sc3ccccc3N(CCN(C)C)C(=O)[C@@H]2OC(C)=O)cc1 [DILTIAZEM]
Not Active: IC50 [1] | IC50 [2] | IC50 [3] | Ki [3] | IC50 (Substance-P receptor) | IC50 [4] | IC50 (Endothelin-1 receptor) | IC50 [5] | Ki [5] | IC50 (Mu-type opioid receptor) | IC50 [7] | Ki [7] | IC50 [6] | IC50 (Cytochrome P450 2C19) | Ki (Cytochrome P450 2C19)

Nc1nc(=O)[nH]cc1F [FLUCYTOSINE]
Not Active: IC50 [1] | IC50 [2] | IC50 [3] | Ki [3] | IC50 (Substance-P receptor) | IC50 [4] | IC50 (Endothelin-1 receptor) | IC50 [5] | Ki [5] | IC50 (Mu-type opioid receptor) | IC50 [7] | Ki [7] | IC50 [6] | IC50 [8] | Ki [8]

O=C1OC2(c3ccc(O)cc3Oc3cc(O)ccc32)c2ccccc21 [FLUORESCEIN]
Not Active: IC50 [1] | IC50 [2] | IC50 [3] | Ki [3] | IC50 (Substance-P receptor) | IC50 [4] | IC50 (Endothelin-1 receptor) | IC50 [5] | Ki [5] | IC50 (Mu-type opioid receptor) | IC50 [7] | Ki [7] | IC50 [6] | IC50 [8] | Ki [8]

NCC(=O)O [GLYCINE]
Not Active: IC50 [1] | IC50 [2] | IC50 [3] | Ki [3] | IC50 (Substance-P receptor) | IC50 [4] | IC50 (Endothelin-1 receptor) | IC50 [5] | Ki [5] | IC50 (Mu-type opioid receptor) | IC50 [7] | Ki [7] | IC50 [6] | IC50 [8] | Ki [8]

O=P1(NCCCl)OCCCN1CCCl (stereo not drawn) [IFOSFAMIDE]
Not Active: IC50 [1] | IC50 [2] | IC50 [3] | Ki [3] | IC50 (Substance-P receptor) | IC50 [4] | IC50 (Endothelin-1 receptor) | IC50 [5] | Ki [5] | IC50 (Mu-type opioid receptor) | IC50 [7] | Ki [7] | IC50 [6] | IC50 [8] | Ki [8]
